Where two headings read alike, the source gives them in different places.
Columns and labels:
human 5-HT2AR [1] = target: T1, human 5-HT2AR (Homo sapiens, UniProt P28223); conditions: known drugs of Table 1; reference not given; read-out: Ki 5-HT2A, Table 1 known drugs; cited from earlier work
scn1lab mutant zebrafish [2] = test: locomotion (mean swim velocity) seizure-like behaviour assay in scn1lab mutant zebrafish larvae; type: in vivo, Danio rerio; conditions: for effect on seizure-like swim behaviour, commercially available compounds: three concentrations, 30 and 90 min exposure; for change in vivo at 100 µM / change in vivo at 250 µM: Danio rerio
Method: For locomotion studies, zebrafish larvae (5 days post-fertilization) were placed into a single well of a clear flat-bottomed 96-well microplate containing embryo media. Sex determination is not possible at this stage of development. All drug screening experiments were conducted in an unbiased manner by investigators blinded to the test compounds and all files coded for post hoc analysis. The 96-well plate containing larvae was then placed inside a DanioVision box where they were allowed to acclimate (20 min; room temperature). EthoVision XT software (DanioVision, Noldus Information Technology) was used to obtain locomotion plots (10 min in duration). Seizure scoring was performed, as described ([Baraban et al., 2005]). All locomotion plots were analysed for distance travelled (in millimetres) and mean velocity (in millimetres per second). After 90 min of drug exposure larvae were examined for toxic side-effects. Compounds that decreased or stopped the larva heartbeat, or reduced or eliminated the escape response when touched, were considered toxic.
For behaviour analysis, the threshold for a change in mean swim velocity ≥40% is considered significant (>1.5× SD of 250 control treated scn1lab). Unless otherwise indicated, all data in this manuscript are presented as the mean ± standard error of the mean. […] Statistically significant differences are indicated with asterisks (*P < 0.05; **P < 0.01; ***P < 0.001). […]

5-HT1A = conditions: known drugs of Table 1; reference not given; cited from earlier work
scn1lab mutant zebrafish [3] = test: local field potential (LFP) electrophysiology, electrographic seizure events; type: in vivo, Danio rerio; conditions: 250 µM; 10 min recording epoch
Method: Using a glass micro-electrode positioned under an upright microscope, local field potential (LFP) recordings were obtained from forebrain or optic tectum structures, as described ([Baraban et al., 2005]). Agarose-embedded LFP recording sessions (10 min in duration) were obtained using Axoclamp software (Molecular Devices; Sunnyvale, CA, USA) and sampled at 1 kHz. Epileptiform events were identified post hoc. These were classified as multi-spike or poly-spike upward or downward membrane deflections greater than 3× baseline noise level and 150–250 ms in duration (interictal-like) or greater than 5× baseline noise, multi-spike and >500 ms in duration (ictal-like); both events were counted using threshold detection settings in Clampfit (Molecular Devices; Sunnyvale, CA, USA). Agarose-embedded larvae were continuously monitored for blood flow and heart rate using an Axiocam digital camera at video frame rate.
Monitoring electrographic brain activity to confirm seizure suppression is an essential assay to eliminate false positives from behavioural testing ([Griffin et al., 2018]). By placing a micro-electrode into a visually identified brain region of an agar-immobilized zebrafish larval, stable LFP recordings can be monitored for several hours ([Baraban, 2013]). At 5 days post-fertilization, LFP recordings of scn1Lab zebrafish larvae show an average of 250 abnormal electrographic seizure events during a 10 min recording epoch.

5-HT transporter = conditions: known drugs of Table 1; reference not given; cited from earlier work
5-HT7 = conditions: known drugs of Table 1; reference not given; cited from earlier work
human 5-HT2R = test: radioligand binding (NIMH PDSP), any 5-HT2R subtype; conditions: 5-HT2AR, 5-HT2BR, 5-HT2CR
Method: (§1) All in vitro binding assay and Ki data studies were performed by the US National Institute of Mental Health Psychoactive Drug Screening Program (NIMH PDSP). For these studies, drugs were screened against recombinant, stably expressed human 5-HT2AR, 5-HT2BR, 5-HT2CR and H1, as described at https://pdspdb.unc.edu/pdspWeb/ ([Besnard et al., 2012]).
Additionally, 5-HT2R modulating compounds exert antiepileptic activity in both preclinical ([Sourbron et al., 2016]; [Griffin et al., 2017]) and clinical studies ([Griffin et al., 2017]; [Schoonjans et al., 2017]; [Kauppila et al., 2018]). […] […].

human 5-HT2BR [4] = target: T2, human 5-HT2BR (Homo sapiens, UniProt P41595); test: radioligand binding (NIMH PDSP); conditions: read-out: Ki 5-HT2BR
T2 sequence (P41595 whole entry): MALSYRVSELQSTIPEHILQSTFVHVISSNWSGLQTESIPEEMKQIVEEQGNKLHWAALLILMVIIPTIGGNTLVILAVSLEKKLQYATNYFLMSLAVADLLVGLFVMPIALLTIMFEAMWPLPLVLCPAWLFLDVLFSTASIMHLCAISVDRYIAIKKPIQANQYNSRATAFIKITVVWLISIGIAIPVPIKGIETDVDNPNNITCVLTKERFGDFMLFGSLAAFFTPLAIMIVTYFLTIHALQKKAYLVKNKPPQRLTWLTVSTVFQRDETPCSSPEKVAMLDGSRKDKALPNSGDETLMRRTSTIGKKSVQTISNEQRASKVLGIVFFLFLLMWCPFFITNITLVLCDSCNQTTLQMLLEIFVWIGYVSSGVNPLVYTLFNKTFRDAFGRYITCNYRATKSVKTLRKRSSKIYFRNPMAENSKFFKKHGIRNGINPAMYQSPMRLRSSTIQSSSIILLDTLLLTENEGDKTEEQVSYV
Method: as §1

human 5-HT2CR [5] = target: T3, human 5-HT2CR (Homo sapiens, UniProt P28335); test: radioligand binding (NIMH PDSP)
T3 sequence (P28335 33-458): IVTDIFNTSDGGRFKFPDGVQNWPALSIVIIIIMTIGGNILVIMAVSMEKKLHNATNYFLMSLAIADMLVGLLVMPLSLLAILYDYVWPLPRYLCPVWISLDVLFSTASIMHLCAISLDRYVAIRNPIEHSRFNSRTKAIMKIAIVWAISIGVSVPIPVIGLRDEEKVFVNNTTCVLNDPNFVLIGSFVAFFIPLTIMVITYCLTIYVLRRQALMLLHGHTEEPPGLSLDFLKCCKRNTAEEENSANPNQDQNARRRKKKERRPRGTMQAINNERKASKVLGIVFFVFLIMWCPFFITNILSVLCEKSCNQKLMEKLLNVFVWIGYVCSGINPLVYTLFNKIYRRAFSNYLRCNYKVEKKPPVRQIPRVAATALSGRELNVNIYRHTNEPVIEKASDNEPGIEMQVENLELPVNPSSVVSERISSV
Method: as §1

human 5-HT2AR [6] = target: T1, human 5-HT2AR; test: radioligand binding (NIMH PDSP)
Method: as §1

human H1 [7] = target: T4, human H1 (Homo sapiens, UniProt P35367); test: radioligand binding (NIMH PDSP); conditions: read-out: Ki H1
T4 sequence (P35367 whole entry): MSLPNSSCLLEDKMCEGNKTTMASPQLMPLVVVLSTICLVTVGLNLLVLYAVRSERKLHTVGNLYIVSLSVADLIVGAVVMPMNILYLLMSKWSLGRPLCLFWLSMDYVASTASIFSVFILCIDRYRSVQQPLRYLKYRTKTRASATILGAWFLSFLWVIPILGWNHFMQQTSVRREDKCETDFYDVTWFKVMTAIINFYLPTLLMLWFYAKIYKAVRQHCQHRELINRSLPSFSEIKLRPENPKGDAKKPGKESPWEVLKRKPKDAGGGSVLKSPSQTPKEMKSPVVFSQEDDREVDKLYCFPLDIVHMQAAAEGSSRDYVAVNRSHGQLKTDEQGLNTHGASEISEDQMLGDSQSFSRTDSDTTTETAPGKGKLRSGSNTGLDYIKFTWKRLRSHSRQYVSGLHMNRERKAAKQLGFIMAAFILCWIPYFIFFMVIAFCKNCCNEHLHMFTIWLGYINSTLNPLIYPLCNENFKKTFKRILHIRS
Method: as §1

[8] = dissolution of compound at screening concentration; conditions: 250 µM
Description: Ten millimolars of compound stock solutions were made in dimethyl sulfoxide and then diluted in embryo medium for assays.

5-HT1D = conditions: known drugs of Table 1; reference not given; cited from earlier work
5-HT1B = conditions: known drugs of Table 1; reference not given; cited from earlier work
5-HT6 = conditions: known drugs of Table 1; reference not given; cited from earlier work
[9] = target: Norepinephrine transporter; conditions: known drugs of Table 1; reference not given; cited from earlier work
human 5-HT2CR [10] = target: T3, human 5-HT2CR
human 5-HT2BR [11] = target: T2, human 5-HT2BR
Histamine H3 = conditions: known drugs of Table 1; reference not given; cited from earlier work
human H1 [12] = target: T4, human H1; conditions: known drugs of Table 1; reference not given; read-out: Ki Histamine H1, Table 1 known drugs; cited from earlier work
scn1lab mutant zebrafish [13] = tested on: scn1lab mutant zebrafish; set-up: method as in Dinday and Baraban, 2015; Sourbron et al., 2016; conditions: ref Dinday and Baraban, 2015; Sourbron et al., 2016; cited from earlier work
[14] = use as anorectic; ref Abenhaim et al., 1996; Khan et al., 1998; cited from earlier work
Adrenergic alpha1B = conditions: known drugs of Table 1; reference not given; cited from earlier work
DOPAMINE D1 = conditions: read-out: Ki DOPAMINE D1; known drugs of Table 1; reference not given; cited from earlier work
Adrenergic alpha2A = conditions: read-out: Ki Adrenergic alpha2A; known drugs of Table 1; reference not given; cited from earlier work
Adrenergic beta2 = conditions: read-out: Ki Adrenergic beta2; known drugs of Table 1; reference not given; cited from earlier work
Dopamine transporter = conditions: known drugs of Table 1; reference not given; cited from earlier work
5-HT5 = conditions: known drugs of Table 1; reference not given; cited from earlier work
DOPAMINE D5 = conditions: read-out: Ki DOPAMINE D5; known drugs of Table 1; reference not given; cited from earlier work
DOPAMINE D2 = conditions: known drugs of Table 1; reference not given; cited from earlier work
Adrenergic alpha2B = conditions: read-out: Ki Adrenergic alpha2B; known drugs of Table 1; reference not given; cited from earlier work
Adrenergic beta1 = conditions: read-out: Ki Adrenergic beta1; known drugs of Table 1; reference not given; cited from earlier work
Adrenergic alpha2C = conditions: read-out: Ki Adrenergic alpha2C; known drugs of Table 1; reference not given; cited from earlier work
Histamine H2 = conditions: known drugs of Table 1; reference not given; cited from earlier work
DOPAMINE D4 = conditions: read-out: Ki DOPAMINE D4; known drugs of Table 1; reference not given; cited from earlier work
Adrenergic alpha1A = conditions: read-out: Ki Adrenergic alpha1A; known drugs of Table 1; reference not given; cited from earlier work
5-HT1E = conditions: known drugs of Table 1; reference not given; cited from earlier work
5-HT1F = conditions: known drugs of Table 1; reference not given; cited from earlier work
[15] = recombinant, stably expressed human receptor, clemizole analogues
[16] = read-out: % change in velocity, individual larva 1 (heat map)
[17] = read-out: % change in velocity, individual larva 2 (heat map)
[18] = read-out: % change in velocity, individual larva 3 (heat map)
[19] = read-out: % change in velocity, individual larva 4 (heat map)
[20] = read-out: % change in velocity, individual larva 5 (heat map)
[21] = read-out: % change in velocity, individual larva 6 (heat map)
[22] = read-out: mean velocity change from six fish, Trial 1

T1 sequence (P28223 whole entry): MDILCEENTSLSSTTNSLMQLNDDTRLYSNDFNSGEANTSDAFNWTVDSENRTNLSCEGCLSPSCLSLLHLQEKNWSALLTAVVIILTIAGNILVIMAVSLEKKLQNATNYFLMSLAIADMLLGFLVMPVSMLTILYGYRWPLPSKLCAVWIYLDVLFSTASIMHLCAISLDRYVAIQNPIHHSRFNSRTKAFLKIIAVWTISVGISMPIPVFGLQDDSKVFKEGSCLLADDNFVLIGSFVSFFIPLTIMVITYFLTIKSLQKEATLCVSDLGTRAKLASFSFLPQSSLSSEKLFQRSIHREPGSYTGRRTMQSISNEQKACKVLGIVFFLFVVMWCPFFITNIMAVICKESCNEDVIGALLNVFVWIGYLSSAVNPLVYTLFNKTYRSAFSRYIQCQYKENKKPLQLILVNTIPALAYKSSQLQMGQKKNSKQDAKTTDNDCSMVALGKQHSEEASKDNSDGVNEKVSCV

CC(N)Cc1ccc2ccoc2c1 (stereo not shown) [Compound 6-APB, 6-(2-aminopropyl)benzofuran]
Ki (human 5-HT2AR [1]): 1930 nM | effect on seizure-like swim behaviour, commercially available compounds (scn1lab mutant zebrafish [2]): suppressed convulsive swim behaviours in a concentration-dependent manner | Ki (5-HT1A): 1280 nM | effect on frequency of electrographic seizure events (LFP) (scn1lab mutant zebrafish [3]): significantly suppressed the frequency of electrographic seizure events | Ki (5-HT transporter): 2700 nM | Ki (5-HT7): 155 nM

c1ccc2c(c1)nc(CN1CCCC1)n2CC1CCOCC1 [Compound 15]
binding to any human 5-HT2R (human 5-HT2R): no significant binding | Ki (human 5-HT2BR [4]; [15]): > 10000 nM | Ki (human 5-HT2CR [5]; [15]): > 10000 nM | Ki (human 5-HT2AR [6]; [15]): > 10000 nM | Ki (human H1 [7]; [15]): 865 nM

FC1(F)CCC(Cn2c(CN3CCCC3)nc3ccccc32)CC1 [Compound 17]
binding to any human 5-HT2R (human 5-HT2R): no significant binding | Ki (human 5-HT2BR [4]; [15]): > 10000 nM | Ki (human 5-HT2CR [5]; [15]): > 10000 nM | Ki (human 5-HT2AR [6]; [15]): > 10000 nM | Ki (human H1 [7]; [15]): 137 nM

CC(C)(C)OC(=O)N1CCN(Cc2nc3ccccc3n2Cc2ccc(Cl)cc2)CC1 [Compound 25]
change in vivo at 100 µM (scn1lab mutant zebrafish [2]; [16]): -56% | change in vivo at 250 µM (scn1lab mutant zebrafish [2]; [16]): -87% | change in vivo at 100 µM (scn1lab mutant zebrafish [2]; [17]): 91.3% | change in vivo at 250 µM (scn1lab mutant zebrafish [2]; [17]): -92.4% | change in vivo at 100 µM (scn1lab mutant zebrafish [2]; [18]): -65.8% | change in vivo at 250 µM (scn1lab mutant zebrafish [2]; [18]): -76.5% | change in vivo at 100 µM (scn1lab mutant zebrafish [2]; [19]): 78.7% | change in vivo at 250 µM (scn1lab mutant zebrafish [2]; [19]): -56.9% | change in vivo at 100 µM (scn1lab mutant zebrafish [2]; [20]): 35.7% | change in vivo at 250 µM (scn1lab mutant zebrafish [2]; [20]): -100% | change in vivo at 100 µM (scn1lab mutant zebrafish [2]; [21]): 153% | change in vivo at 250 µM (scn1lab mutant zebrafish [2]; [21]): -23.6% | change in vivo at 100 µM (scn1lab mutant zebrafish [2]; [22]): 42% | change in vivo at 250 µM (scn1lab mutant zebrafish [2]; [22]): -82.5% | change in vivo at 100 µM (scn1lab mutant zebrafish [2]; read-out: mean velocity change from six fish, Trial 2): 42% | going into solution at screening concentration [8]: failed to go into solution | Ki (human 5-HT2BR [4]): 482 nM | Ki (human 5-HT2CR [5]): 2260 nM | Ki (human 5-HT2AR [6]): 2380 nM | Ki (human H1 [7]): 76 nM

Clc1ccc(Cn2c(CN3CCCC3)nc3ccccc32)cc1 [clemizole]
Ki (human 5-HT2AR [1]): 239 nM | Ki (5-HT1A): > 10000 nM | Ki (5-HT1D): > 10000 nM | Ki (5-HT1B): > 10000 nM | Ki (5-HT6): > 10000 nM | Ki [9]: > 10000 nM | Ki (human 5-HT2CR [10]; known drugs of Table 1; reference not given; read-out: Ki 5-HT2C, Table 1 known drugs; cited from earlier work): 197 nM | Ki (human 5-HT2BR [11]; known drugs of Table 1; reference not given; read-out: Ki 5-HT2B, Table 1 known drugs; cited from earlier work): 25 nM | Ki (Histamine H3): 402 nM | Ki (human H1 [12]): 1.3 nM | Ki (5-HT7): > 10000 nM

CCNC(C)Cc1cccc(C(F)(F)F)c1 (stereo not shown) [fenfluramine]
suppression of spontaneous seizures in scn1lab zebrafish (earlier work) (scn1lab mutant zebrafish [13]): effective in suppressing spontaneous seizures | Ki (5-HT1D): 1260 nM | Ki (5-HT1B): 1840 nM | patients with heart valve defects [14]: ~25% | Ki (5-HT6): 9080 nM | Ki (Adrenergic alpha1B): 142 nM | Ki (5-HT7): 7310 nM

C[C@H]1CNCCc2ccc(Cl)cc21 [lorcaserin]
Ki (5-HT1A): 700 nM | Ki (DOPAMINE D1): > 10000 nM | Ki (Adrenergic alpha2A): > 10000 nM | Ki (Adrenergic beta2): > 10000 nM | Ki (5-HT transporter): 990 nM | Ki (5-HT6): 1980 nM | Ki (Dopamine transporter): > 10000 nM | Ki (5-HT5): 3710 nM | Ki (DOPAMINE D5): > 10000 nM | Ki (DOPAMINE D2): > 10000 nM | Ki (Adrenergic alpha2B): > 10000 nM | Ki (Adrenergic alpha1B): > 10000 nM | Ki [9]: 1400 nM | Ki (Adrenergic beta1): > 10000 nM | Ki (Adrenergic alpha2C): > 10000 nM | Ki (Histamine H2): > 10000 nM | Ki (DOPAMINE D4): > 10000 nM | Ki (5-HT7): 636 nM | Ki (Adrenergic alpha1A): > 10000 nM

CC[C@@H](CO)NC(=O)[C@@H]1C=C2c3cccc4[nH]cc(c34)C[C@H]2N(C)C1 [methylergonovine]
effect on seizure-like swim behaviour, commercially available compounds (scn1lab mutant zebrafish [2]): suppressed convulsive swim behaviours in a concentration-dependent manner | Ki (5-HT1E): 89.1 nM | Ki (5-HT1F): 31 nM | effect on frequency of electrographic seizure events (LFP) (scn1lab mutant zebrafish [3]): significantly suppressed the frequency of electrographic seizure events | Ki (human 5-HT2CR [10]; read-out: Ki 5-HT2C, Table 1 known drugs; known drugs of Table 1; reference not given; cited from earlier work): 4.6 nM | Ki (human 5-HT2BR [11]; read-out: Ki 5-HT2B, Table 1 known drugs; known drugs of Table 1; reference not given; cited from earlier work): 2.2 nM
